According to ChEMBL document CHEMBL5724914, “Linking interpersonal differences in gut microbiota composition and drug biotransformation activity” (2024):

How the values were obtained:
[1] = (§1) The drug is tested on WLS-006 corresponding to human gut metagenome with ENA study accession number: PRJEB37062 and ENA sample accession number: ERS12561741 for biotransformation under anaerobic condition. The drug concentrations were measured over 9 timepoints collected between 0 and 24 hours of incubation by liquid-chromatography-coupled mass spectrometry (LC–MS); conditions: 2 µM
[2] = human gut metagenome, 24 h, 2 µM
[3] = human gut metagenome, 24 h, 2 µM; remark: listed apart in the source
[4] = human gut metagenome, 24 h, 2 µM; remark: listed apart in the source
[5] = human gut metagenome, 24 h, 2 µM; remark: listed apart in the source
[6] = human gut metagenome, 24 h, 2 µM; remark: listed apart in the source
[7] = as §1, with “WLS-073” for “WLS-006”, “ERS12561749” for “ERS12561741”; conditions: 2 µM
[8] = as §1, with “WLS-090” for “WLS-006”, “ERS12561753” for “ERS12561741”; conditions: 2 µM
[9] = human gut metagenome, 24 h, 2 µM; remark: listed apart in the source
[10] = human gut metagenome, 24 h, 2 µM; remark: listed apart in the source
[11] = human gut metagenome, 24 h, 2 µM; remark: listed apart in the source
[12] = as §1, with “WLS-220” for “WLS-006”, “ERS12561769” for “ERS12561741”; conditions: 2 µM
[13] = human gut metagenome, 24 h, 2 µM; remark: listed apart in the source
[14] = human gut metagenome, 24 h, 2 µM; remark: listed apart in the source
[15] = human gut metagenome, 24 h, 2 µM; remark: listed apart in the source
[16] = as §1, with “WLS-007” for “WLS-006”, “ERS12561742” for “ERS12561741”; conditions: 2 µM
[17] = as §1, with “WLS-086” for “WLS-006”, “ERS12561752” for “ERS12561741”; conditions: 2 µM
[18] = as §1, with “WLS-082” for “WLS-006”, “ERS12561751” for “ERS12561741”; conditions: 2 µM
[19] = human gut metagenome, 24 h, 2 µM; remark: listed apart in the source
[20] = human gut metagenome, 24 h, 2 µM; remark: listed apart in the source
[21] = as §1, with “WLS-170” for “WLS-006”, “ERS12561762” for “ERS12561741”; conditions: 2 µM
[22] = as §1, with “WLS-069” for “WLS-006”, “ERS12561748” for “ERS12561741”; conditions: 2 µM
[23] = human gut metagenome, 24 h, 2 µM; remark: listed apart in the source
[24] = human gut metagenome, 24 h, 2 µM; remark: listed apart in the source
[25] = as §1, with “WLS-027” for “WLS-006”, “ERS12561744” for “ERS12561741”; conditions: 2 µM
[26] = human gut metagenome, 24 h, 2 µM; remark: listed apart in the source
[27] = human gut metagenome, 24 h, 2 µM; remark: listed apart in the source
[28] = human gut metagenome, 24 h, 2 µM; remark: listed apart in the source
[29] = human gut metagenome, 24 h, 2 µM; remark: listed apart in the source
[30] = as §1, with “WLS-370” for “WLS-006”, “ERS12561793” for “ERS12561741”; conditions: 2 µM
[31] = human gut metagenome, 24 h, 2 µM; remark: listed apart in the source
[32] = human gut metagenome, 24 h, 2 µM; remark: listed apart in the source
[33] = human gut metagenome, 24 h, 2 µM; remark: listed apart in the source
[34] = human gut metagenome, 24 h, 2 µM; remark: listed apart in the source
[35] = as §1, with “WLS-077” for “WLS-006”, “ERS12561750” for “ERS12561741”; conditions: 2 µM
[36] = human gut metagenome, 24 h, 2 µM; remark: listed apart in the source
[37] = as §1, with “WLS-039” for “WLS-006”, “ERS12561746” for “ERS12561741”; conditions: 2 µM
[38] = as §1, with “WLS-010” for “WLS-006”, “ERS12561743” for “ERS12561741”; conditions: 2 µM
[39] = human gut metagenome, 24 h, 2 µM; remark: listed apart in the source
[40] = as §1, with “WLS-038” for “WLS-006”, “ERS12561745” for “ERS12561741”; conditions: 2 µM
[41] = as §1, with “WLS-310” for “WLS-006”, “ERS12561785” for “ERS12561741”; conditions: 2 µM
[42] = human gut metagenome, 24 h, 2 µM; remark: listed apart in the source
[43] = human gut metagenome, 24 h, 2 µM; remark: listed apart in the source
[44] = human gut metagenome, 24 h, 2 µM; remark: listed apart in the source
[45] = human gut metagenome, 24 h, 2 µM; remark: listed apart in the source
[46] = human gut metagenome, 24 h, 2 µM; remark: listed apart in the source
[47] = as §1, with “WLS-098” for “WLS-006”, “ERS12561754” for “ERS12561741”; conditions: 2 µM
[48] = as §1, with “WLS-052” for “WLS-006”, “ERS12561747” for “ERS12561741”; conditions: 2 µM
[49] = as §1, with “WLS-350” for “WLS-006”, “ERS12561789” for “ERS12561741”; conditions: 2 µM
[50] = human gut metagenome, 24 h, 2 µM; remark: listed apart in the source
[51] = human gut metagenome, 24 h, 2 µM; remark: listed apart in the source
[52] = human gut metagenome, 24 h, 2 µM; remark: listed apart in the source
[53] = human gut metagenome, 24 h, 2 µM; remark: listed apart in the source
[54] = as §1, with “WLS-240” for “WLS-006”, “ERS12561773” for “ERS12561741”; conditions: 2 µM
[55] = human gut metagenome, 24 h, 2 µM; remark: listed apart in the source
[56] = human gut metagenome, 24 h, 2 µM; remark: listed apart in the source
[57] = human gut metagenome, 24 h, 2 µM; remark: listed apart in the source
[58] = human gut metagenome, 24 h, 2 µM; remark: listed apart in the source
[59] = human gut metagenome, 24 h, 2 µM; remark: listed apart in the source
[60] = human gut metagenome, 24 h, 2 µM; remark: listed apart in the source
Also: call rule not given here.

CN1CCN(C2=Nc3ccccc3Oc3ccc(Cl)cc32)CC1.O=C(O)CCC(=O)O [LOXAPINE SUCCINATE]
Bacterial Biotransformation [1]: Compound NOT metabolized | Bacterial Biotransformation [2]: Compound NOT metabolized | Bacterial Biotransformation [3]: Compound NOT metabolized | Bacterial Biotransformation [4]: Compound NOT metabolized | Bacterial Biotransformation [5]: Compound NOT metabolized | Bacterial Biotransformation [6]: Compound NOT metabolized | Bacterial Biotransformation [7]: Compound NOT metabolized | Bacterial Biotransformation [8]: Compound NOT metabolized | Bacterial Biotransformation [9]: Compound NOT metabolized | Bacterial Biotransformation [10]: Compound NOT metabolized | Bacterial Biotransformation [11]: Compound NOT metabolized | Bacterial Biotransformation [12]: Compound NOT metabolized | Bacterial Biotransformation [13]: Compound NOT metabolized | Bacterial Biotransformation [14]: Compound NOT metabolized | Bacterial Biotransformation [15]: Compound NOT metabolized | Bacterial Biotransformation [16]: Compound NOT metabolized | Bacterial Biotransformation [17]: Compound NOT metabolized | Bacterial Biotransformation [18]: Compound NOT metabolized | Bacterial Biotransformation [19]: Compound NOT metabolized | Bacterial Biotransformation [20]: Compound NOT metabolized | Bacterial Biotransformation [21]: Compound NOT metabolized | Bacterial Biotransformation [22]: Compound NOT metabolized | Bacterial Biotransformation [23]: Compound NOT metabolized | Bacterial Biotransformation [24]: Compound NOT metabolized | Bacterial Biotransformation [25]: Compound NOT metabolized | Bacterial Biotransformation [26]: Compound NOT metabolized | Bacterial Biotransformation [27]: Compound NOT metabolized | Bacterial Biotransformation [28]: Compound NOT metabolized | Bacterial Biotransformation [29]: Compound NOT metabolized | Bacterial Biotransformation [30]: Compound NOT metabolized | Bacterial Biotransformation [31]: Compound NOT metabolized | Bacterial Biotransformation [32]: Compound NOT metabolized | Bacterial Biotransformation [33]: Compound NOT metabolized | Bacterial Biotransformation [34]: Compound NOT metabolized | Bacterial Biotransformation [35]: Compound NOT metabolized | Bacterial Biotransformation [36]: Compound NOT metabolized | Bacterial Biotransformation [37]: Compound NOT metabolized | Bacterial Biotransformation [38]: Compound NOT metabolized | Bacterial Biotransformation [39]: Compound NOT metabolized | Bacterial Biotransformation [40]: Compound NOT metabolized | Bacterial Biotransformation [41]: Compound NOT metabolized | Bacterial Biotransformation [42]: Compound NOT metabolized | Bacterial Biotransformation [43]: Compound NOT metabolized | Bacterial Biotransformation [44]: Compound NOT metabolized | Bacterial Biotransformation [45]: Compound NOT metabolized | Bacterial Biotransformation [46]: Compound NOT metabolized | Bacterial Biotransformation [47]: Compound NOT metabolized | Bacterial Biotransformation [48]: Compound NOT metabolized | Bacterial Biotransformation [49]: Compound NOT metabolized | Bacterial Biotransformation [50]: Compound NOT metabolized | Bacterial Biotransformation [51]: Compound NOT metabolized | Bacterial Biotransformation [52]: Compound NOT metabolized | Bacterial Biotransformation [53]: Compound NOT metabolized | Bacterial Biotransformation [54]: Compound NOT metabolized | Bacterial Biotransformation [55]: Compound NOT metabolized | Bacterial Biotransformation [56]: Compound NOT metabolized | Bacterial Biotransformation [57]: Compound NOT metabolized | Bacterial Biotransformation [58]: Compound NOT metabolized | Bacterial Biotransformation [59]: Compound NOT metabolized | Bacterial Biotransformation [60]: Compound NOT metabolized

CCCCC(=O)O[C@]1(C(=O)CO)[C@@H](C)C[C@H]2[C@@H]3CCC4=CC(=O)C=C[C@]4(C)[C@@]3(F)[C@@H](O)C[C@@]21C [BETAMETHASONE VALERATE]
Bacterial Biotransformation [1]: Compound metabolized | Bacterial Biotransformation [2]: Compound NOT metabolized | Bacterial Biotransformation [3]: Compound metabolized | Bacterial Biotransformation [4]: Compound metabolized | Bacterial Biotransformation [5]: Compound NOT metabolized | Bacterial Biotransformation [6]: Compound metabolized | Bacterial Biotransformation [7]: Compound NOT metabolized | Bacterial Biotransformation [8]: Compound metabolized | Bacterial Biotransformation [9]: Compound metabolized | Bacterial Biotransformation [10]: Compound NOT metabolized | Bacterial Biotransformation [11]: Compound metabolized | Bacterial Biotransformation [12]: Compound metabolized | Bacterial Biotransformation [13]: Compound NOT metabolized | Bacterial Biotransformation [14]: Compound NOT metabolized | Bacterial Biotransformation [15]: Compound metabolized | Bacterial Biotransformation [16]: Compound metabolized | Bacterial Biotransformation [17]: Compound metabolized | Bacterial Biotransformation [18]: Compound metabolized | Bacterial Biotransformation [19]: Compound metabolized | Bacterial Biotransformation [20]: Compound metabolized | Bacterial Biotransformation [21]: Compound metabolized | Bacterial Biotransformation [22]: Compound metabolized | Bacterial Biotransformation [23]: Compound NOT metabolized | Bacterial Biotransformation [24]: Compound metabolized | Bacterial Biotransformation [25]: Compound metabolized | Bacterial Biotransformation [26]: Compound NOT metabolized | Bacterial Biotransformation [27]: Compound metabolized | Bacterial Biotransformation [28]: Compound NOT metabolized | Bacterial Biotransformation [29]: Compound metabolized | Bacterial Biotransformation [30]: Compound NOT metabolized | Bacterial Biotransformation [31]: Compound metabolized | Bacterial Biotransformation [32]: Compound metabolized | Bacterial Biotransformation [33]: Compound metabolized | Bacterial Biotransformation [34]: Compound metabolized | Bacterial Biotransformation [35]: Compound metabolized | Bacterial Biotransformation [36]: Compound NOT metabolized | Bacterial Biotransformation [37]: Compound metabolized | Bacterial Biotransformation [38]: Compound metabolized | Bacterial Biotransformation [39]: Compound metabolized | Bacterial Biotransformation [40]: Compound metabolized | Bacterial Biotransformation [41]: Compound metabolized | Bacterial Biotransformation [42]: Compound NOT metabolized | Bacterial Biotransformation [43]: Compound NOT metabolized | Bacterial Biotransformation [44]: Compound NOT metabolized | Bacterial Biotransformation [45]: Compound metabolized | Bacterial Biotransformation [46]: Compound metabolized | Bacterial Biotransformation [47]: Compound NOT metabolized | Bacterial Biotransformation [48]: Compound metabolized | Bacterial Biotransformation [49]: Compound NOT metabolized | Bacterial Biotransformation [50]: Compound NOT metabolized | Bacterial Biotransformation [51]: Compound NOT metabolized | Bacterial Biotransformation [52]: Compound metabolized | Bacterial Biotransformation [53]: Compound metabolized | Bacterial Biotransformation [54]: Compound metabolized | Bacterial Biotransformation [55]: Compound NOT metabolized | Bacterial Biotransformation [56]: Compound metabolized | Bacterial Biotransformation [57]: Compound metabolized | Bacterial Biotransformation [58]: Compound NOT metabolized | Bacterial Biotransformation [59]: Compound metabolized | Bacterial Biotransformation [60]: Compound NOT metabolized
